Assay results from PMC7486940, “Pre-symptomatic Caspase-1 inhibitor delays cognitive decline in a mouse model of Alzheimer disease and aging” (Nature Communications, 2020).

Experiments:
Aβ = Aβ immunostaining density and ELISA (RIPA- and FA-soluble); type: in vivo, mouse
Method: VX-765 (Adooq Bioscience, Irvine, CA, USA) was dissolved 5 mg • ml^−1 in 20% cremophor in dH2O[60] (Sigma-Aldrich, ON, Canada) and administered IPWT and J20 mice received three injections per week of either 50 mg • kg^−1 VX-765 or 20% cremophor vehicle for 4 weeks between 2 and 3 months of age. Mice were longitudinally followed starting 4 weeks after the last injection [4-week washout (WO)], then every other month at 12- and 20-week WO (6 and 8 months of age, respectively). Intermediate 8- and 16-week WO periods were also looked at with a smaller number of mice. After each WO period, animals were randomly chosen, independent of behavioural performance, for sacrifice and assigned to either histological or biochemical analysis (Fig. 2a).
Mice for immunohistochemistry were isoflurane anesthetized and perfused with ice-cold 4% paraformaldehyde in 0.1 M PBS (Sigma-Aldrich). Brains were post-fixed overnight in 10% neutral-buffered formalin (ThermoFisher Scientific, ON, Canada) and transferred to 70% ethanol for paraffin embedding and sectioning at 4 μm. Tissue slides underwent heat-induced antigen retrieval with citrate or EDTA buffer. Immunostaining was performed using the Dako Autostainer Plus slide processor and EnVision Flex system (Dako, ON, Canada). Sections were peroxidase treated, blocked in Serum-Free Protein Block, and immunostained with the following antibodies: 1:2000 rabbit anti-Iba1 (Wako, VA, USA), 1:500 rat anti-CD68 (clone FA-11, Bio-Rad, Hercules, CA, USA), 1:8000 rabbit anti-GFAP (Dako) and 1:2000 rabbit anti-Aβ1-40 (F25276, laboratory developed). CD68 antibody required an additional rabbit anti-rat IgG/HRP secondary reagent (Dako) incubation. […] Sections were digitally scanned with MIRAX SCAN (Zeiss, ON, Canada) and used for subsequent analyses.
Iba1-positive microglia were quantified using a modified version of an area-specific counting frame. The number of Iba1-positive cells per mm^3 in the anterior CA1 region and cortex was estimated across four sections, spaced 60 μm apart. Microglial activation level was determined based on morphological measurements[19],[41]. Aβ1-40 and GFAP immunostaining density was measured across four sections using ImageJ software (NIH, Bethesda, MD, USA). Quantification was blinded to treatment and genotype.
ELISA samples were prepared in RIPA described above. RIPA-insoluble pellets were further extracted in 70% formic acid (FA) in dH2O. FA was evaporated in a speed vacuum, and the resulting pellet was solubilized in 200 mM Tris-HCl, pH 7.5. IL-1β and Aβ levels (which include Aβ38, Aβ40 and Aβ42) were measured using Meso Scale Discovery ELISA kits (Rockville, MD, USA). Standards and samples were prepared according to the manufacturer’s protocols and run in duplicate.

CD4 T-cell = test system: CD4 T-cell; design: method as in PMID 24356306; conditions: HIV; cited from earlier work
[1] = female, C57BL/6J, mouse, in vivo, ip, 50 mg/kg, 0.25 h
Method: (§1) Plasma, whole brain and CSF concentrations of VX-765 and its active metabolite, VRT-043198, were determined by LC-MS/MS at Paraza Pharma (Montreal, QC, Canada). Fourteen C57BL/6J female mice received a single IP dose of 50 mg · kg^−1 VX-765 and 2 mice per time point were euthanized at 0.25, 0.5, 1, 3, 6, 8 and 24 h post-injection. Mice were isoflurane anesthetized to collect CSF and perform a cardiac puncture followed by whole body perfusion with PBS. Plasma samples were extracted 1:1 in spiking solution and internal standard solution containing 0.1 μM glyburide in acetonitrile. Brain and CSF samples were extracted 1:1 in spiking solution and internal standard solution containing 0.2 μM labetalol in 50:50 methanol:acetonitrile. Samples were centrifuged at 4000 × g for 10 min at 4 °C, the plasma supernatant diluted 1:1 and the brain and CSF supernatant diluted 1:2 in H2O, and 5 μl was injected into a Quantis LC-MS/MS system for analysis.

in vivo = conditions: female, C57BL/6J, mouse, ip, 50 mg/kg; for half-life: Half-life (t1/2) in plasma; for MRT inf: MRTinf in plasma
Method: as §1

CCO[C@@H]1OC(=O)C[C@@H]1NC(=O)[C@@H]1CCCN1C(=O)[C@@H](NC(=O)c1ccc(N)c(Cl)c1)C(C)(C)C [VX-765, (S)-1-((S)-2-{[1-(4-amino-3-chloro-phenyl)-methanoyl]-amino}-3,3-dimethyl-butanoyl)-pyrrolidine-2-carboxylic acid ((2R,3S)-2-ethoxy-5-oxo-tetrahydro-furan-3-yl)-amide]
FA-soluble Aβ42 levels, Aβ42/total Aβ ratio, cortical Aβ subtypes (Aβ; J20, 20-week WO): did not affect hippocampal Aβ42 levels and Aβ42/total Aβ ratio, or any Aβ subtype in the cortex
Aβ staining density (Aβ; J20 hippocampus and cortex, vs vehicle): significantly decreased Aβ staining density only in the cortex at 12-week WO
RIPA-soluble Aβ38, Aβ40, Aβ42 or total Aβ levels (Aβ; J20 hippocampus or cortex, all WO periods, vehicle vs VX-765): no significant differences
formic acid (FA)-soluble total Aβ levels (Aβ; J20 hippocampus or cortex, any WO period): did not differ between vehicle and VX-765 treatment
FA-soluble hippocampal Aβ38 and Aβ40 levels (Aβ; J20 hippocampus, 20-week WO): increased FA-soluble hippocampal Aβ38 and Aβ40 levels at 20-week WO
RIPA-soluble Aβ42/total Aβ ratio (Aβ; J20 hippocampus, 20-week WO): significantly higher in vehicle- compared to VX-765-treated hippocampus in J20 mice at 20-week WO
inflammation, CD4 T-cell death and pyroptosis (CD4 T-cell): reduce inflammation by suppressing CD4 T-cell death and pyroptosis in HIV
CSF concentration relative to respective in vitro Casp1 IC50 [1]: 100 fold
brain concentration relative to respective in vitro Casp1 IC50 [1]: 50 fold
plasma concentration relative to respective in vitro Casp1 IC50 [1]: 100 fold
concentration at 0.25 h (in vivo; CSF concentration, Mean): 330 nM
concentration at 0.5 h (in vivo; CSF concentration, Mean): 620 nM
concentration at 1 h (in vivo; CSF concentration, Mean): 80 nM
concentration at 3 h (in vivo; CSF concentration, Mean): 60 nM
concentration at 6 h (in vivo; CSF concentration, Mean): 60 nM
concentration at 8 h (in vivo; CSF concentration, Mean): 100 nM
concentration at 0.25 h (in vivo; CSF concentration, Mouse 1): 210 nM
concentration at 0.5 h (in vivo; CSF concentration, Mouse 1): 70 nM
concentration at 1 h (in vivo; CSF concentration, Mouse 1): 60 nM
concentration at 3 h (in vivo; CSF concentration, Mouse 1): 70 nM
concentration at 6 h (in vivo; CSF concentration, Mouse 1): 50 nM
concentration at 8 h (in vivo; CSF concentration, Mouse 1): 70 nM
concentration at 0.25 h (in vivo; CSF concentration, Mouse 2): 450 nM
concentration at 0.5 h (in vivo; CSF concentration, Mouse 2): 1170 nM
concentration at 1 h (in vivo; CSF concentration, Mouse 2): 100 nM
concentration at 3 h (in vivo; CSF concentration, Mouse 2): 40 nM
concentration at 6 h (in vivo; CSF concentration, Mouse 2): 60 nM
concentration at 8 h (in vivo; CSF concentration, Mouse 2): 130 nM
Cmax (in vivo; Cmax in CSF, Mean): 690 nM
Cmax (in vivo; Cmax in CSF, Mouse 1): 210 nM
Cmax (in vivo; Cmax in CSF, Mouse 2): 1170 nM
Cmax (in vivo; Cmax in brain, Mean): 160 nM
Cmax (in vivo; Cmax in brain, Mouse 1): 240 nM
Cmax (in vivo; Cmax in brain, Mouse 2): 90 nM
Cmax (in vivo; Cmax in plasma, Mean): 1590 nM
Cmax (in vivo; Cmax in plasma, Mouse 1): 1540 nM
Cmax (in vivo; Cmax in plasma, Mouse 2): 1630 nM
half-life (in vivo; Mean): 192 min
half-life (in vivo; Mouse 1): 193 min
half-life (in vivo; Mouse 2): 190 min
MRT inf (in vivo; Mean): 313 min
MRT inf (in vivo; Mouse 1): 288 min
MRT inf (in vivo; Mouse 2): 338 min
Tmax (in vivo; Tmax in CSF, Mean): 22.8 min
Tmax (in vivo; Tmax in CSF, Mouse 1): 15 min
Tmax (in vivo; Tmax in CSF, Mouse 2): 30 min
Tmax (in vivo; Tmax in brain, Mean): 22.8 min
Tmax (in vivo; Tmax in brain, Mouse 1): 15 min
Tmax (in vivo; Tmax in brain, Mouse 2): 30 min
Tmax (in vivo; Tmax in plasma, Mean): 45 min
Tmax (in vivo; Tmax in plasma, Mouse 1): 30 min
Tmax (in vivo; Tmax in plasma, Mouse 2): 60 min
concentration at 0.25 h (in vivo; brain concentration, Mean): 160 nM
concentration at 0.5 h (in vivo; brain concentration, Mean): 70 nM
concentration at 0.25 h (in vivo; brain concentration, Mouse 1): 240 nM
concentration at 0.5 h (in vivo; brain concentration, Mouse 1): 50 nM
concentration at 0.25 h (in vivo; brain concentration, Mouse 2): 70 nM
concentration at 0.5 h (in vivo; brain concentration, Mouse 2): 90 nM
concentration at 0.25 h (in vivo; plasma concentration, Mean): 290 nM
concentration at 0.5 h (in vivo; plasma concentration, Mean): 1010 nM
concentration at 1 h (in vivo; plasma concentration, Mean): 1250 nM
concentration at 3 h (in vivo; plasma concentration, Mean): 400 nM
concentration at 6 h (in vivo; plasma concentration, Mean): 330 nM
concentration at 8 h (in vivo; plasma concentration, Mean): 320 nM
concentration at 24 h (in vivo; plasma concentration, Mean): 10 nM
concentration at 0.25 h (in vivo; plasma concentration, Mouse 1): 310 nM
concentration at 0.5 h (in vivo; plasma concentration, Mouse 1): 1540 nM
concentration at 1 h (in vivo; plasma concentration, Mouse 1): 870 nM
concentration at 3 h (in vivo; plasma concentration, Mouse 1): 450 nM
concentration at 6 h (in vivo; plasma concentration, Mouse 1): 430 nM
concentration at 8 h (in vivo; plasma concentration, Mouse 1): 200 nM
concentration at 24 h (in vivo; plasma concentration, Mouse 1): 8 nM
concentration at 0.25 h (in vivo; plasma concentration, Mouse 2): 270 nM
concentration at 0.5 h (in vivo; plasma concentration, Mouse 2): 490 nM
concentration at 1 h (in vivo; plasma concentration, Mouse 2): 1630 nM
concentration at 3 h (in vivo; plasma concentration, Mouse 2): 350 nM
concentration at 6 h (in vivo; plasma concentration, Mouse 2): 220 nM
concentration at 8 h (in vivo; plasma concentration, Mouse 2): 450 nM
concentration at 24 h (in vivo; plasma concentration, Mouse 2): 14 nM
